Key:
[1] = tested on: proximal convoluted tubule epithelium of the kidney; assay: Histologic examination of kidney cortex tissue of Gentamicin-treated rats; format: in vivo, rat
Description: (§1) Gentamicin, a known kidney toxin, was used to treat rats at a range of doses known to produce varying degrees of bistopathologically evident kidney response. […] The rat groups included 10 male rats per treated group, and 20 male rats in the untreated (control) group. Blood samples from rats treated at 40 mg/kg/day after 8 days were taken for proteome analysis, and kidney cortex tissue samples from rats treated at 0.1, 1.0, 10, and 40 mg/kg/day after 8 and 22 days for each group were taken for proteome analysis. Kidney cortex tissue samples were also prepared for histologic examination according to standard tissue preparation protocols.
(§2) At 60 mg/kg/day there were changes in urine biochemistry parameters (raised NAG (N-acetyl-beta-D-glucosaminidase), GGT (gamma-glutamyl-transpeptidase) and urine volume, depressed specific gravity), consistent with kidney damage.

rats = assay: Urine biochemistry parameters in Gentamicin-treated rats; format: in vivo, rat; details: 60 mg/kg/day
Description: as §1, §2

Q: Gentamicin was tested. Which “histologic examination of kidney” value ([1]; 60 mg/kg) did it give?
A: Its value is “single cell necrosis and loss of brush border of the proximal convoluted tubule epithelium of the kidney”.

Q: And the “histologic finding after withdrawal of treatment” value ([1]; seven days after the withdrawal of treatment)?
A: The value was “evidence of cortical tubular regeneration”.

Q: What about the “urine GGT (gamma-glutamyl-transpeptidase)” value (rats) of the same substance?
A: Its value is “raised”.

Q: What about the “urine NAG (N-acetyl-beta-D-glucosaminidase)” value (rats) of the same substance?
A: Its value is “raised”.

Q: What about the urine specific gravity (rats) of the same substance?
A: Its urine specific gravity is “depressed”.

— patent US20040053309A1, “Proteins, genes and their use for diagnosis and treatment of kidney response” (priority 2000, published 2004)
